Assay [1] has as its system human ovarian cancer cells A2780. The experiment in a line: proliferation inhibitory activity against human ovarian cancer cell A2780 (CellTiter-Glo). Type of assay: cell-based. The following applies: A2780, 72 h, 1 μM test compound, 3 days of culture, read-out: proliferation inhibitory rate (%) of A2780 cells. On the procedure:
The proliferation inhibitory activity of the compound of the present invention against human ovarian cancer cell A2780 was evaluated by the following method.
Human ovarian cancer cells A2780 were seeded in a 384 well culture plate at 1000 cells in 30 μL of medium per well by using RPMI-1640 medium (Wako Pure Chemical Industries, Ltd.) containing 10% fetal bovine serum and penicillin/streptomycin. The next day, 10 μL of RPMI-1640 medium containing the test compound was added to the cells. After 3 days of culture, 20 μL of CellTiter-Glo Luminescent Cell Viability Assay solution (Promega) was added. The luminescence signal was measured using EnVision (PerkinElmer) and the inhibitory rate (%) of the test compound was calculated with a well free of seeding of cell as 100% inhibition.

In assay [2] the target is T1, human PRS protein (His-Avi-hEPRS (998-1512)) (Homo sapiens, UniProt P07814).
T1 construct: to construct His-Avi-hEPRS (998-1512) expression plasmid; His tag (N); Avi tag (N); TEV cleavage site (ENLYFQG, then S; inferred from the forward primer hEPRS-TEV-NheF) (N); made in house; host or cells: E. coli BL21(DE3)
T1 sequence (P07814 998-1512 limits assumed): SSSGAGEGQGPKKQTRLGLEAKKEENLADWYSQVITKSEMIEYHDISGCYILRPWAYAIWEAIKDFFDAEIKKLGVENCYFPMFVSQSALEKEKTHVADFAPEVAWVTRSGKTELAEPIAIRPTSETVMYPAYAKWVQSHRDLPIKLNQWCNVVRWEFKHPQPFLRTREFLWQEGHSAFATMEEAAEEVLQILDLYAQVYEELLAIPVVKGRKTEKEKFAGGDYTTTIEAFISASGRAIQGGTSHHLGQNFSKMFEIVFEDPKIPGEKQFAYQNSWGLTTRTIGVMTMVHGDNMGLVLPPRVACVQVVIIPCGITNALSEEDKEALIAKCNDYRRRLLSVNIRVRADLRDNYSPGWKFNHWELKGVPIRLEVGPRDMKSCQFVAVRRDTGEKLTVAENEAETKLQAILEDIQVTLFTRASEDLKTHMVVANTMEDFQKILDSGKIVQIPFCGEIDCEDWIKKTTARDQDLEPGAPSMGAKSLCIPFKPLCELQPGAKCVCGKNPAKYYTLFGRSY
As to the kind of experiment: PRS inhibitory activity ([32P]pyrophosphate exchange enzyme assay). Type of assay: biochemical. Conditions: 300 nM test compound; read-out: inhibitory rate (%) of PRS. An outline of the steps: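 Compound was pre-incubated 60 min with 40 nM His-Avi-hEPRS (998-1512) (stock, E. coli-expressed) in Tris pH 7.5/KCl/DTT/Tween/MgCl2. Reaction began with substrate mix containing 300 μM ATP, 160 μM L-proline, 400 μM [32P]pyrophosphate (stock levels) and ran 30 min at room temperature. Charcoal-bound radioactivity was counted; inhibition was relative to no-reaction control.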

Structures are written as SMILES.

With `CC(c1nc2ncnc(C(=O)NCc3cc(F)cc(-c4cnn(C)c4)c3)c2[nH]1)C1CC1` (centres unmarked) [Example 45, 8-(1-cyclopropylethyl)-N-(3-fluoro-5-(1-methyl-1H-pyrazol-4-yl)benzyl)-7H-purine-6-carboxamide], in assay [1], the inhibition at 1 µM is 99%. For the same compound, the inhibition at 0.3 µM in assay [2] came to 101%.

In the case of `Cn1cc(-c2cc(F)cc(CNC(=O)c3nccc4nc(C5CCCC5)n(CC#N)c34)c2)cn1` [Example 131, 3-(cyanomethyl)-2-cyclopentyl-N-(3-fluoro-5-(1-methyl-1H-pyrazol-4-yl)benzyl)-3H-imidazo[4,5-c]pyridine-4-carboxamide], the inhibition at 1 µM in assay [1] turned out to be 93%. Further, the inhibition at 0.3 µM in assay [2] turned out to be 101%.

Turning to `Cn1cc(-c2cc(F)cc(CNC(=O)c3ncnc4nc(C5CCC5)[nH]c34)c2)cn1` [Example 58, 8-cyclobutyl-N-(3-fluoro-5-(1-methyl-1H-pyrazol-4-yl)benzyl)-7H-purine-6-carboxamide], in assay [1], the inhibition at 1 µM came out at 66%. In addition, the inhibition at 0.3 µM in assay [2] came to 99%.

`Cc1cc(-c2cc(F)cc(CNC(=O)c3cc(N4CC[C@@](C#N)(C5CC5)C4=O)cc(C)n3)c2)cnn1` [Example 207, 4-((3S)-3-cyano-3-cyclopropyl-2-oxopyrrolidin-1-yl)-N-(3-fluoro-5-(6-methylpyridazin-4-yl)benzyl)-6-methylpyridine-2-carboxamide]: the inhibition at 1 µM in assay [1] was 59%. Also, the inhibition at 0.3 µM in assay [2] was found to be 96%.

With `Cn1cc(-c2cc(F)cc(CNC(=O)c3nccc4nc(C5CCCC5)n(C)c34)c2)ccc1=O` [Example 92, 2-cyclopentyl-N-(3-fluoro-5-(1-methyl-6-oxo-1,6-dihydropyridin-3-yl)benzyl)-3-methyl-3H-imidazo[4,5-c]pyridine-4-carboxamide], in assay [1], the inhibition at 1 µM was 99%. In addition, the inhibition at 0.3 µM in assay [2] came to 100%.

On to `Cn1cc(-c2cc(F)cc(CNC(=O)c3ncnc4nc(C5CCC(F)(F)C5)[nH]c34)c2)cn1` (centres unmarked) [Example 40, 8-(3,3-difluorocyclopentyl)-N-(3-fluoro-5-(1-methyl-1H-pyrazol-4-yl)benzyl)-7H-purine-6-carboxamide], for which the inhibition at 1 µM in assay [1] came to 98%. Further, the inhibition at 0.3 µM in assay [2] came out at 102%.

In the case of `Cc1cc(N2CCC(C)(C)C2=O)cc(C(=O)NCc2cc(F)cc(-c3cnn(C)c3)c2)n1` [Example 165, 4-(3,3-dimethyl-2-oxopyrrolidin-1-yl)-N-(3-fluoro-5-(1-methyl-1H-pyrazol-4-yl)benzyl)-6-methylpyridine-2-carboxamide], the inhibition at 1 µM in assay [1] was 75%. Also, the inhibition at 0.3 µM in assay [2] was determined as 100%.

For the compound `Cn1cc(-c2cc(C#N)cc(CNC(=O)c3ncnc4nc(C5CCCC5)[nH]c34)c2)cn1` [Example 16, N-(3-cyano-5-(1-methyl-1H-pyrazol-4-yl)benzyl)-8-cyclopentyl-7H-purine-6-carboxamide], the inhibition at 1 µM in assay [1] is 93%. For the same compound, in assay [2], the inhibition at 0.3 µM stood at 102%.

`Cn1cc(-c2cc(F)cc(CNC(=O)c3cc(N4CC[C@@](C#N)(C5CC5)C4=O)cc(C(F)F)n3)c2)cn1` [Example 214, 4-((3S)-3-cyano-3-cyclopropyl-2-oxopyrrolidin-1-yl)-6-(difluoromethyl)-N-(3-fluoro-5-(1-methyl-1H-pyrazol-4-yl)benzyl)pyridine-2-carboxamide]: in assay [1], the inhibition at 1 µM was determined as 72%. Moreover, the inhibition at 0.3 µM in assay [2] turned out to be 99%.

In the case of `Cc1cc(N2CC[C@@](C#N)(C3CC3)C2=O)cc(C(=O)NCc2cc(F)cc(-c3cnc(C)s3)c2)n1` [Example 187, 4-((3S)-3-cyano-3-cyclopropyl-2-oxopyrrolidin-1-yl)-N-(3-fluoro-5-(2-methyl-1,3-thiazol-5-yl)benzyl)-6-methylpyridine-2-carboxamide], the inhibition at 1 µM in assay [1] is 65%. The inhibition at 0.3 µM in assay [2] came to 99%.

For `Cn1cc(-c2cc(F)cc(CNC(=O)c3nccc4nc(C5CCCC5)[nH]c34)c2)cn1` [Example 86, 2-cyclopentyl-N-(3-fluoro-5-(1-methyl-1H-pyrazol-4-yl)benzyl)-3H-imidazo[4,5-c]pyridine-4-carboxamide], the inhibition at 1 µM in assay [1] was determined as 97%. In assay [2], the inhibition at 0.3 µM was determined as 101%.

Take `Cc1cc(N2CCC3(CCC3)C2=O)cc(C(=O)NCc2cc(F)cc(-c3cnn(C)c3)c2)n1` [Example 232, N-(3-fluoro-5-(1-methyl-1H-pyrazol-4-yl)benzyl)-6-methyl-4-(5-oxo-6-azaspiro[3.4]oct-6-yl)pyridine-2-carboxamide]: the inhibition at 1 µM in assay [1] came out at 64%. Besides, in assay [2], the inhibition at 0.3 µM is 100%.

On to `Cn1c(C2CCCC2)nc2ncnc(C(=O)NCc3cc(F)cc(-c4cnn(C(C)(C)CO)c4)c3)c21` [Example 30, 8-cyclopentyl-N-(3-fluoro-5-(1-(1-hydroxy-2-methylpropan-2-yl)-1H-pyrazol-4-yl)benzyl)-7-methyl-7H-purine-6-carboxamide], for which, in assay [1], the inhibition at 1 µM was 99%. Further, in assay [2], the inhibition at 0.3 µM came out at 102%.

Consider `O=C(NCc1ccccc1Cl)c1ncnc2nc(C3CCCC3)[nH]c12` [Example 1, N-(2-chlorobenzyl)-8-cyclopentyl-7H-purine-6-carboxamide], for which the inhibition at 1 µM in assay [1] came to 60%. In addition, the inhibition at 0.3 µM in assay [2] is 98%.

For the compound `Cc1cc(N2C(=O)[C@](C#N)(C3CC3)C[C@@H]2C)cc(C(=O)NCc2cc(F)cc(-c3cnn(C)c3)c2)n1` [Example 221, 4-((3S,5S)-3-cyano-3-cyclopropyl-5-methyl-2-oxopyrrolidin-1-yl)-N-(3-fluoro-5-(1-methyl-1H-pyrazol-4-yl)benzyl)-6-methylpyridine-2-carboxamide], the inhibition at 1 µM in assay [1] came to 64%. In addition, the inhibition at 0.3 µM in assay [2] came to 99%.

Take `Cc1cc(N2CC[C@@](C#N)(C3CC3)C2=O)cc(C(=O)NCc2cc(F)cc(-c3ccc(=O)n(C)c3)c2)n1` [Example 169, 4-((3S)-3-cyano-3-cyclopropyl-2-oxopyrrolidin-1-yl)-N-(3-fluoro-5-(1-methyl-6-oxo-1,6-dihydropyridin-3-yl)benzyl)-6-methylpyridine-2-carboxamide]: in assay [1], the inhibition at 1 µM was found to be 98%. In assay [2], the inhibition at 0.3 µM was found to be 100%.

Regarding `Cn1cc(-c2cc(F)cc(CNC(=O)c3ncnc4nc(C5(F)CCCC5)[nH]c34)c2)cn1` [Example 27, 8-(1-fluorocyclopentyl)-N-(3-fluoro-5-(1-methyl-1H-pyrazol-4-yl)benzyl)-7H-purine-6-carboxamide], in assay [1], the inhibition at 1 µM stood at 97%. The inhibition at 0.3 µM in assay [2] came out at 99%.

As for `O=C(NCc1cc(F)cc(-c2cnn(C3CC3)c2)c1)c1ncnc2nc(C3CCCC3)[nH]c12` [Example 14, 8-cyclopentyl-N-(3-(1-cyclopropyl-1H-pyrazol-4-yl)-5-fluorobenzyl)-7H-purine-6-carboxamide], the inhibition at 1 µM in assay [1] is 97%. Further, the inhibition at 0.3 µM in assay [2] came to 100%.

For `Cn1cc(-c2ccnc(CNC(=O)c3ncnc4nc(C5CCCC5)n(C)c34)c2)cn1` [Example 52, 8-cyclopentyl-7-methyl-N-((4-(1-methyl-1H-pyrazol-4-yl)pyridin-2-yl)methyl)-7H-purine-6-carboxamide], the inhibition at 1 µM in assay [1] was found to be 69%. In addition, the inhibition at 0.3 µM in assay [2] was 99%.

Take `Cn1cc(-c2cc(F)cc(CNC(=O)c3nccc4nc(C5CCCC5)[nH]c34)c2)nn1` [Example 89, 2-cyclopentyl-N-(3-fluoro-5-(1-methyl-1H-1,2,3-triazol-4-yl)benzyl)-3H-imidazo[4,5-c]pyridine-4-carboxamide]: the inhibition at 1 µM in assay [1] turned out to be 98%. Also, the inhibition at 0.3 µM in assay [2] came to 101%.

In the case of `Cn1cc(-c2cc(F)cc(CNC(=O)c3nccc4nc(C5CCCC5)n(CC(=O)O)c34)c2)cn1` [Example 127, (2-cyclopentyl-4-((3-fluoro-5-(1-methyl-1H-pyrazol-4-yl)benzyl)carbamoyl)-3H-imidazo[4,5-c]pyridin-3-yl)acetic acid], in assay [1], the inhibition at 1 µM stood at 70%. The inhibition at 0.3 µM in assay [2] turned out to be 101%.

Turning to `Cc1cc(CNC(=O)c2cc(N3CC[C@@](C#N)(C4CC4)C3=O)cc(C)n2)cc(-c2cnn(C)c2)c1` [Example 217, 4-((3S)-3-cyano-3-cyclopropyl-2-oxopyrrolidin-1-yl)-6-methyl-N-(3-methyl-5-(1-methyl-1H-pyrazol-4-yl)benzyl)pyridine-2-carboxamide], the inhibition at 1 µM in assay [1] was determined as 80%. In addition, the inhibition at 0.3 µM in assay [2] was 101%.

The values are drawn from US10774083B2, “Heterocyclic amide compound” (TAKEDA PHARMACEUTICAL COMPANY LIMITED, priority 2016, dated 2020).
